This is an account of results in patent US20250281590A1, “IMMUNOGENIC COMPOSITIONS COMPRISING CONJUGATED ESCHERICHIA COLI SACCHARIDES AND USES THEREOF” (Pfizer Inc., priority 2024, published 2025).

Common to all, as to assay: IgG dLIA with pAb standards, NHP sera, CpG study (Example 5)
What all share (format): in vivo, rhesus macaque

Experiment [1] relates to E. coli O-antigen serotype O25b. Particulars: 4 valent O-antigen SCP with CpG 1800 μg; after each vaccination; dLIA standard (pAb/mAb) not specified; listed as CpG. As to the method: (§1) The 4-plex O-antigen IgG dLIA serology assay was completed as follows: The primate serology assay utilized the same O-antigen MagPlex®-C microspheres (Luminex) as the mouse serology assay described in Example 3, above. Microspheres were incubated with serially diluted NHP serum samples, controls, and human polyclonal serum standards overnight at 2-8° C. while shaking. In this case, bound serotype-specific IgG was detected with PE-conjugated goat anti-human IgG. Fcγ fragment-specific secondary antibody (Jackson Laboratories) and fluorescence was measured on the FlexMap 3D instrument ([…]). Human serum containing IgG to all four O-antigens was used as an internal standard for interpolating NHP serum IgG concentrations. […] Lower limit of quantification (LLOQ) was defined as 2 U/mL.
(§2) In this study, the adjuvanting effect of nucleotide adjuvant CpG 24555 on immunogenicity of E. coli O-antigen SCP glycoconjugates of serotypes O1a, O2, O6, and O25b was assessed in a NHP (Rhesus Macaques) model.
(§3) 20 male rhesus macaques were selected for this study. Three groups of Rhesus macaques were vaccinated with the 4 valent O-antigen SCP glycoconjugates including one group without CpG adjuvant, one group with CpG adjuvant and a lower dose of the 4 valent O-antigen SCP glycoconjugates, and one group with CpG adjuvant and a higher dose of 4 valent O-antigen SCP glycoconjugates. The no adjuvant control group, as well as the group with CpG adjuvant and the higher dose of glycoconjugates included 2 μg of serotypes O1a, O2, and O6, as well as 4 μg of serotype O25b. The group with CpG adjuvant and the lower dose of glycoconjugates included 0.5 μg of serotypes O1a, O2, and O6, as well as 1 μg of serotype O25b. Vaccination was administered at months 0, 2, and 6. Animals were bled prior to vaccination and at weeks 1, 2, 4, 6, 9, 10, 12, 25, and 26. 0.5 mL of vaccine formulation was injected intramuscularly (IM).
(§4) Geometric mean titers (GMTs) of IgG antibodies specific for each of the respective 0-antigen serotypes O1a, O2, O6, and O25b were quantified using a Luminex 4-plex dLIA assay. The 4-plex O-antigen IgG dLIA serology assay was completed as described in Example 4, above. Table 21 and 22, below, present data for IgG GMT titers for each of serotypes O1a, O2, O6, and O25b.

Experiment [2] relates to E. coli O-antigen serotype O6. Particulars: 4 valent O-antigen SCP with CpG 1800 μg, dLIA standard (pAb/mAb) not specified. As to the method:
as §1, §2, §3, §4

Experiment [3] has as its system E. coli O-antigen serotype O2. Particulars: 4 valent O-antigen SCP with CpG 1800 μg, dLIA standard (pAb/mAb) not specified. As to the method:
as §1, §2, §3, §4

Experiment [4] deals with E. coli O-antigen serotype O1a. Particulars: 4 valent O-antigen SCP with CpG 1800 μg; dLIA standard (pAb/mAb) not specified; listed as CpG. On the procedure: as §1, §2, §3, §4

On to CpG 24555 [CpG adjuvant], for which, in experiment [1], the “Serotype O25b IgG titers, fold increase vs. unadjuvanted titers” value is reported as “greater than twenty-fold increases”. Besides, the results for the “Serotype O6 IgG titers, fold increase vs. unadjuvanted titers” value in experiment [2] and in experiment [2] (listed as CpG) were “less than 10 fold” and “up to ten-fold increases”, respectively. Besides, the “Serotype O2 IgG titers, fold increase vs. unadjuvanted titers” value in experiment [3] is reported as “less than 10 fold”; in experiment [3] (listed as CpG), “up to ten-fold increases”. Further, the “Serotype O1a IgG titers, fold increase vs. unadjuvanted titers” value in experiment [4] is recorded as “greater than twenty-fold increases”.
